Results taken from PMC5681660, “Reduced hepatitis B and D viral entry using clinically applied drugs as novel inhibitors of the bile acid transporter NTCP” (Scientific Reports, 2017).
Counter-ions that a name gives are not always drawn. Like-named read-outs stand apart in the source and are kept apart here.

What was measured:
human NTCP [1] = target: T1, human NTCP (Homo sapiens, UniProt Q14973); assay: Screening taurocholate uptake assay (96-well, [14C]taurocholate, 10 µM drug)
T1 sequence (Q14973 1-349): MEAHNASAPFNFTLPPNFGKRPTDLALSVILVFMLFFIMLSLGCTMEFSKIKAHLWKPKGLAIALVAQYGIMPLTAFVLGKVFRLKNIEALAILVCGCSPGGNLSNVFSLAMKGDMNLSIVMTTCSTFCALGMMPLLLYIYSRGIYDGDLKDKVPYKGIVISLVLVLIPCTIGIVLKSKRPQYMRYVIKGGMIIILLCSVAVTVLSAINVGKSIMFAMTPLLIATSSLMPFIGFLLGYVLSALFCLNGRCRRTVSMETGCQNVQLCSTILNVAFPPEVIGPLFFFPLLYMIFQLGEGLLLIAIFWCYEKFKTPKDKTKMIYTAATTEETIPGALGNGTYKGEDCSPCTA

human NTCP [2] = target: T1, human NTCP; assay: Screening fluorescent competitive Myrcludex B-FITC binding assay (96-well, 10 µM drug)
[3] = Prestwick library screen, 10 µM drug, B-score of taurocholate uptake
[4] = combined ranking from functional and binding assay B-scores
[5] = Prestwick library screen, 10 µM drug, B-score of Myrcludex B-FITC binding
[6] = combined ranking from functional and binding screening assays
[7] = screen, 10 µM drug, taurocholate uptake
[8] = screen, 10 µM drug, Myrcludex B-FITC binding
[9] = Prestwick library screen, taurocholate uptake, 10 µM drug
[10] = ranking score beside the functional and binding assay B-scores of the screen
[11] = Prestwick library screen, Myrcludex B-FITC binding, 10 µM drug

CN(Cc1ccc(C(C)(C)C)cc1)Cc1cccc2ccccc12 [Butenafine Hydrochloride]
B-score functional assay (human NTCP [1]; [3]): 1.115
Ranking score (human NTCP [1]; [4]): 986.495
B-score binding assay (human NTCP [2]; [5]): 0.435

COc1cccc2c1C(=O)c1c(O)c3c(c(O)c1C2=O)C[C@@](O)(C(=O)CO)C[C@@H]3O[C@H]1C[C@H](N)[C@@H](O)[C@H](C)O1 [Epirubicin hydrochloride]
B-score functional assay (human NTCP [1]): 0.079
Ranking score (human NTCP [1]): 915.844
B-score binding assay (human NTCP [2]): 1.555

O=C1CCc2cc(OCCCCc3nnnn3C3CCCCC3)ccc2N1 [Cilostazol]
Ranking score (human NTCP [1]; [6]): 446.637
B-score functional assay (human NTCP [1]; [7]): -0.174
B-score binding assay (human NTCP [2]; [8]): -0.418

Cc1nnc(NS(=O)(=O)c2ccc(N)cc2)s1 [Sulfamethizole]
B-score functional assay (human NTCP [1]; [3]): 1.973
Ranking score (human NTCP [1]; [4]): 1054.65
B-score binding assay (human NTCP [2]; [5]): 0.555

CNNCc1ccc(C(=O)NC(C)C)cc1 [Procarbazine hydrochloride]
Ranking score (human NTCP [1]; [6]): 345.534
B-score functional assay (human NTCP [1]; [7]): -0.792
B-score binding assay (human NTCP [2]; [8]): -0.424

COc1cc(C)c(/C=C/C(C)=C/C=C/C(C)=C/C(=O)O)c(C)c1C [Acitretin]
Ranking score (human NTCP [1]; [6]): 302.82
B-score functional assay (human NTCP [1]; [7]): 0.046
B-score binding assay (human NTCP [2]; [8]): -1.766

NS(=O)(=O)c1cc2c(cc1Cl)NC(CC1CCCC1)NS2(=O)=O (centres unmarked) [Cyclopenthiazide]
B-score functional assay (human NTCP [1]; [9]): -0.118
Ranking score (human NTCP [1]; [10]): 797.145
B-score binding assay (human NTCP [2]; [11]): 2.395

CC(CCc1ccc(O)cc1)NCCc1ccc(O)c(O)c1 (centres unmarked) [Dobutamine hydrochloride]
B-score functional assay (human NTCP [1]; [9]): -0.038
Ranking score (human NTCP [1]; [10]): 789.916
B-score binding assay (human NTCP [2]; [11]): 1.051

CCCCN(CCCC)CCC(O)c1cc2c(Cl)cc(Cl)cc2c2cc(C(F)(F)F)ccc12 (centres unmarked) [Halofantrine hydrochloride]
Ranking score (human NTCP [1]; [6]): 393.07
B-score functional assay (human NTCP [1]; [7]): 0.058
B-score binding assay (human NTCP [2]; [8]): -1.143

OCCN(CCO)c1nc(N2CCCCC2)c2nc(N(CCO)CCO)nc(N3CCCCC3)c2n1 [Dipyridamole]
Ranking score (human NTCP [1]; [6]): 317.643
B-score functional assay (human NTCP [1]; [7]): -1.651
B-score binding assay (human NTCP [2]; [8]): -0.011

Clc1ccc2nsnc2c1NC1=NCCN1 [Tizanidine HCl]
Ranking score (human NTCP [1]; [6]): 334.885
B-score functional assay (human NTCP [1]; [7]): -0.107
B-score binding assay (human NTCP [2]; [8]): -1.169

CC(C(=O)O)c1ccc(C(=O)c2ccccc2)s1 (centres unmarked) [Tiaprofenic acid]
B-score functional assay (human NTCP [1]; [3]): 0.836
Ranking score (human NTCP [1]; [4]): 1082.46
B-score binding assay (human NTCP [2]; [5]): 1.57

CN(C)CCCO[C@@H]1[C@H]2OC(C)(C)O[C@H]2O[C@@H]1[C@H](O)CO [Amiprilose hydrochloride]
B-score functional assay (human NTCP [1]; [9]): 0.017
Ranking score (human NTCP [1]; [10]): 760.053
B-score binding assay (human NTCP [2]; [11]): 0.378

Cn1c(=O)c2c(ncn2C)n(C)c1=O [Caffeine]
B-score functional assay (human NTCP [1]; [9]): 0.363
Ranking score (human NTCP [1]; [10]): 818.709
B-score binding assay (human NTCP [2]; [11]): 0.154

CNS(=O)(=O)Cc1ccc2[nH]cc(CCN(C)C)c2c1 [Sumatriptan succinate]
B-score functional assay (human NTCP [1]): 0.496
Ranking score (human NTCP [1]): 810.351
B-score binding assay (human NTCP [2]): 0.075

C[C@H](CS)C(=O)N1CCC[C@H]1C(=O)O [Captopril]
Ranking score (human NTCP [1]; [10]): 728.08
B-score binding assay (human NTCP [2]; [11]): 0.648

CC(=O)CC(c1ccccc1)c1c(O)c2ccccc2oc1=O (centres unmarked) [Warfarin]
Ranking score (human NTCP [1]; [6]): 391.491
B-score functional assay (human NTCP [1]; [7]): -1.345
B-score binding assay (human NTCP [2]; [8]): 0.123

CO[C@H]1/C=C/O[C@@]2(C)Oc3c(C)c(O)c4c(c3C2=O)C2=NC3(CCN(CC(C)C)CC3)NC2=C(NC(=O)/C(C)=C\C=C\[C@H](C)[C@H](O)[C@@H](C)[C@@H](O)[C@@H](C)[C@H](OC(C)=O)[C@@H]1C)C4=O [Rifabutin]
B-score functional assay (human NTCP [1]; [9]): 1.309
Ranking score (human NTCP [1]; [10]): 731.029
B-score binding assay (human NTCP [2]; [11]): -0.23

CN(N=O)C(=O)N[C@H]1C(O)O[C@H](CO)[C@@H](O)[C@@H]1O (mixture of isomers) [Streptozotocin]
Ranking score (human NTCP [1]; [6]): 307.444
B-score functional assay (human NTCP [1]; [7]): -0.84
B-score binding assay (human NTCP [2]; [8]): -0.654

CN(C)[C@@H]1C(O)=C(C(N)=O)C(=O)[C@@]2(O)C(O)=C3C(=O)c4c(O)ccc(Cl)c4[C@@](C)(O)[C@H]3C[C@@H]12 [Chlortetracycline hydrochloride]
B-score functional assay (human NTCP [1]; [9]): -0.045
Ranking score (human NTCP [1]; [10]): 738.786
B-score binding assay (human NTCP [2]; [11]): 0.571

CN(C)CC/C=C1\c2ccccc2CSc2ccccc21 [Dosulepin hydrochloride]
Ranking score (human NTCP [1]; [6]): 296.985
B-score functional assay (human NTCP [1]; [7]): -2.363
B-score binding assay (human NTCP [2]; [8]): 0.311

N[C@@H](C(=O)N[C@@H]1C(=O)N2C(C(=O)O)=C(Cl)CS[C@H]12)c1ccccc1.O [Cefaclor hydrate]
Ranking score (human NTCP [1]; [6]): 381.916
B-score functional assay (human NTCP [1]; [7]): -0.668
B-score binding assay (human NTCP [2]; [8]): -0.309

C[C@H](N)[C@H](O)c1ccc(O)c(O)c1 [Levonordefrin]
Ranking score (human NTCP [1]; [6]): 346.693
B-score functional assay (human NTCP [1]; [7]): 0.177
B-score binding assay (human NTCP [2]; [8]): -1.559

CN1C(=O)CCS(=O)(=O)C1c1ccc(Cl)cc1 (centres unmarked) [Chlormezanone]
B-score functional assay (human NTCP [1]; [3]): 0.286
Ranking score (human NTCP [1]; [4]): 979.274
B-score binding assay (human NTCP [2]; [5]): 1.516

CC[C@@]1(O)C(=O)OCc2c1cc1n(c2=O)Cc2cc3ccccc3nc2-1 [Camptothecine (S,+)]
B-score functional assay (human NTCP [1]; [3]): 0.986
Ranking score (human NTCP [1]; [4]): 879.695
B-score binding assay (human NTCP [2]; [5]): 0.08

CC(C)(CO)[C@@H](O)C(=O)NCCCO [Panthenol (D)]
B-score functional assay (human NTCP [1]; [3]): 0.501
Ranking score (human NTCP [1]; [4]): 899.92
B-score binding assay (human NTCP [2]; [5]): 0.428

C[C@H]1O[C@@H](O[C@H]2[C@@H](O)C[C@H](O[C@H]3[C@@H](O)C[C@H](O[C@H]4CC[C@@]5(C)[C@H](CC[C@@H]6[C@@H]5C[C@@H](O)[C@]5(C)[C@@H](C7=CC(=O)OC7)CC[C@]65O)C4)O[C@@H]3C)O[C@@H]2C)C[C@H](O)[C@@H]1O [Digoxin]
Ranking score (human NTCP [1]; [6]): 426.002
B-score functional assay (human NTCP [1]; [7]): -1.822
B-score binding assay (human NTCP [2]; [8]): 2.8

Cc1cc(N)c2ccccc2[n+]1CCCCCCCCCC[n+]1c(C)cc(N)c2ccccc21 [Dequalinium dichloride]
B-score functional assay (human NTCP [1]; [9]): -0.527
Ranking score (human NTCP [1]; [10]): 680.714
B-score binding assay (human NTCP [2]; [11]): 3.994

CC(C)(Oc1ccc(CCNC(=O)c2ccc(Cl)cc2)cc1)C(=O)O [Bezafibrate]
Ranking score (human NTCP [1]; [6]): 430.871
B-score functional assay (human NTCP [1]; [7]): -1.123
B-score binding assay (human NTCP [2]; [8]): 0.184

CC[C@H](C)C(=O)O[C@H]1CCC=C2C=C[C@H](C)[C@H](CC[C@@H]3C[C@@H](O)CC(=O)O3)[C@H]21 [Mevastatin]
Ranking score (human NTCP [1]; [6]): 355.331
B-score functional assay (human NTCP [1]; [7]): -2.175
B-score binding assay (human NTCP [2]; [8]): 1.164

CC1=NS(=O)(=O)c2cc(Cl)ccc2N1 [Diazoxide]
Ranking score (human NTCP [1]; [6]): 331.971
B-score functional assay (human NTCP [1]; [7]): -1.121
B-score binding assay (human NTCP [2]; [8]): -0.26

CCC1=C[C@@H]2CN3CCc4c([nH]c5ccccc45)[C@@](C(=O)OC)(C2)[C@@H]13 [Catharanthine]
Ranking score (human NTCP [1]; [6]): 448.328
B-score functional assay (human NTCP [1]; [7]): -0.613
B-score binding assay (human NTCP [2]; [8]): -0.047

CC[C@H]1OC(=O)[C@H](C)[C@@H](O[C@H]2C[C@@](C)(OC)[C@@H](O)[C@H](C)O2)[C@H](C)[C@@H](O[C@@H]2O[C@H](C)C[C@H](N(C)C)[C@H]2O)[C@](C)(O)C[C@@H](C)C(=O)[C@H](C)[C@@H](O)[C@]1(C)O [Erythromycin]
B-score functional assay (human NTCP [1]; [3]): 3.026
Ranking score (human NTCP [1]; [4]): 1129.71
B-score binding assay (human NTCP [2]; [5]): 0.93

CNC(=O)c1c(I)c(C(=O)NCC(=O)Nc2c(I)c(C(=O)O)c(I)c(C(=O)NCCO)c2I)c(I)c(N(C)C(C)=O)c1I [Ioxaglic acid]
B-score functional assay (human NTCP [1]; [9]): -0.19
Ranking score (human NTCP [1]; [10]): 769.829
B-score binding assay (human NTCP [2]; [11]): 2.105

CCN1CCN(c2cc3c(cc2F)c(=O)c(C(=O)O)cn3C2CC2)CC1 [Enrofloxacin]
B-score functional assay (human NTCP [1]; [9]): 0.028
Ranking score (human NTCP [1]; [10]): 706.109
B-score binding assay (human NTCP [2]; [11]): 0.083
